Tests used:
[1] = test system: B cells (CD20-positive CD3-negative cells) of human PBMC; assay: B cell activation using human PBMC (CD69-positive signal, FACS); format: cell-based; conditions: anti-IgM antibody 1 μg/mL / IL-4 3 ng/mL, 22 hours
Method: (§1) Measurement of B Cell Activation or T Cell Activation Using Human PBMC
(§2) A 10 mmol/L solution of the test compound in DMSO was dispensed into a 96-well plate (Nunc) and a 5× dilution series was prepared using DMSO. A 100× concentration test compound dilution solution was prepared by an additional 10× dilution with RPMI1640 medium (contained 10% HI-FBS, 1% penicillin). Human peripheral blood mononuclear cells (PBMC) were diluted with the medium to provide a density of 2×10^6 cells/mL. 396 μL of the cell suspension was added to a 96-well plate into which 4 μL of the 100× concentration test compound dilution solution or the solvent (10% DMSO) had already been introduced and incubation was performed for 10 minutes at 37° C. and 5% CO2. 10 μL of an anti-IgM antibody (Southern Biotech)/IL-4 (R & D Systems) solution or an anti-CD3/CD28 antibody bead suspension (Invitrogen Corporation) was added to a 96-well plate and 90 μL of the cell suspension prepared as described above was also added (final concentrations: anti-IgM antibody=1 μg/mL, IL-4=3 ng/mL, and anti-CD3/CD28 antibody beads=2×10^6 beads/mL). 10 μL of the medium was added to the unstimulated sample wells in place of these stimulating substances, and standing at 37° C. and 5% CO2 was again performed. Incubation was carried out for 16 hours in the case of the evaluation of T cell activation and for 22 hours in the case of the evaluation of B cell activation. 100 μL Cytofix Buffer (BD Biosciences) was added; holding for 15 minutes at 37° C. was performed; centrifugation for 10 minutes at 1500 rpm was carried out; and the supernatant was removed. 200 μL of Perm buffer II (BD Biosciences) at −20° C. was added; holding for 30 minutes on ice was performed; centrifugation for 10 minutes at 1500 rpm was carried out; and the supernatant was removed. 0.5 mL Stain buffer (BD Biosciences) was added and centrifugation was carried out for 10 minutes at 1500 rpm. 100 μL of a mixed antibody solution was added and incubation was performed for 30 minutes on ice in the dark. The antibody was the 10× dilution with Stain Buffer of the 1:1:1 mixture of PerCP-labeled anti-CD3 antibody (BD Biosciences), AF488-labeled anti-CD20 antibody (BD Biosciences), and PE-labeled anti-CD69 antibody (BD Biosciences). 0.4 mL Stain Buffer was added and the supernatant was removed. […] The CD69-positive signal (average fluorescence intensity) of the CD20-positive CD3-negative cells (B cells) or CD3-positive CD20-negative cells (T cells) was measured. After subtracting the value for the unstimulated sample, the % inhibition with reference to the value for the stimulated control sample was determined. The % inhibition was graphically plotted using Prism (ver. 5.01 J, GraphPad Software) and the IC50 value was determined.

Lck = Lck (Homo sapiens (Human), UniProt P06239); assay: Lck inhibitory activity, selectivity for Btk (Z'-LYTE kinase assay); format: biochemical; conditions: ratio of the IC50 values of the individual kinases
Chain of Lck (P06239 whole entry): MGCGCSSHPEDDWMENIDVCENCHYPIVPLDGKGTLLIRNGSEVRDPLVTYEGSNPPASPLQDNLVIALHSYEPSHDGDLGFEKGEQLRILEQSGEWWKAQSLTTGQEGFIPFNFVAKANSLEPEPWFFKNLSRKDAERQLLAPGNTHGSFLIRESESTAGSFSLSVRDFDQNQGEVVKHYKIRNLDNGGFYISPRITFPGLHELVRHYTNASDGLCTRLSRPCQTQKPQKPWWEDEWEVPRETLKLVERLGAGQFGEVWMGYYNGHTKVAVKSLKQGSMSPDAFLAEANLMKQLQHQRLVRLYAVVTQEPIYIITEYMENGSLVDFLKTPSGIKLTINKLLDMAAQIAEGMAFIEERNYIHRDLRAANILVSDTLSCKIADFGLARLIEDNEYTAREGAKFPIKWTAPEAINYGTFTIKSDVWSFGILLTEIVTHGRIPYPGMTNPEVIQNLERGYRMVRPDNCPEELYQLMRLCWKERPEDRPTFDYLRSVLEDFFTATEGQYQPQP
Method: (§3) The inhibitory activity for other kinases (for example, Lck, Fyn, and LynA (all from Invitrogen Corporation) was measured in the same manner as described above using the particular kinase in place of the Btk.

Human CYP2C19 = Human CYP2C19 (Homo sapiens (Human), UniProt P33261); assay: Inhibitory action on human CYP2C19; format: in vitro ADME
Chain of Human CYP2C19 (P33261 whole entry): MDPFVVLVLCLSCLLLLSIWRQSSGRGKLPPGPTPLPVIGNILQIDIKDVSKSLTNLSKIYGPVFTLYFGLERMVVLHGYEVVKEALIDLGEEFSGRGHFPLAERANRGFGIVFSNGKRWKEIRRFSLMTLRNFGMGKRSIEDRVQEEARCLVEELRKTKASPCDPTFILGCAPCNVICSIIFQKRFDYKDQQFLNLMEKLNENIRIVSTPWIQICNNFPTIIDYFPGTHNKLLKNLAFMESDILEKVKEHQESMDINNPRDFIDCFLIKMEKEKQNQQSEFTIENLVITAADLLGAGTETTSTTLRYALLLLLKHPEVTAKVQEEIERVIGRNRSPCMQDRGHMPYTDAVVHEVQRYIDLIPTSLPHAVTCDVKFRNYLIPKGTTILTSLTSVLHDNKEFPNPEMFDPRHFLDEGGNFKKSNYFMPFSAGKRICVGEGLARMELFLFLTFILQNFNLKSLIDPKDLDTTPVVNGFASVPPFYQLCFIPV
Method: (§4) Measurement of the Inhibitory Activity on Drug-Metabolizing Enzymes (Inhibitory Action on Human CYP2C8 and Human CYP2C19)
The reaction was carried out in a 96-well plate. The positive control substances (CYP2C8: ketoconazole, CYP2C19: tranylcypromine) were adjusted (CYP2C8: 0.6 and 6 mmol/L, CYP2C19: 0.9 and 9 mmol/L) with DMSO to concentrations that were 300 times the final concentration, and solutions were prepared (CYP2C8: 8 and 80 μmol/L, CYP2C19: 12 and 120 μmol/L) by 75× dilution with purified water that contained 2.7% acetonitrile. The test compounds were adjusted to […] with DMSO and were adjusted to 4 and 40 μmol/L by 75× dilution with purified water that contained 2.7% acetonitrile. A reaction mixture was then prepared (the numerical values are final concentrations) by the addition of potassium phosphate buffer (pH 7.4), magnesium chloride ([…]), substrate (CYP2C8: dibenzylfluorescein 1 μmol/L, CYP2C19: 3-cyano-7-ethoxycoumarin 25 μmol/L), and E. coli-expressed liver microsome CYP2C8 (Cypex, 10 pmol/L) and CYP2C19 (Cypex, 3 pmol/L). 100 μL of this reaction mixture and 50 μL of the test compound prepared as described above and the positive control solution prepared as described above were dispensed into each well and pre-incubation was carried out at 10 minutes for 37° C. The reaction was started by the addition of 50 μL NADPH solution (final concentration=1 mmol/L) and incubation was carried out for 30 minutes at 37° C. The fluorescence intensity was measured (CYP2C8: excitation wavelength=485 nm, fluorescence wavelength=538 nm; CYP2C19: excitation wavelength=409 nm, fluorescence wavelength=460 nm) immediately after the addition of the NADPH and after incubation for 30 minutes.

LynA = LynA (Homo sapiens (Human), UniProt P07948); assay: LynA inhibitory activity, selectivity for Btk (Z'-LYTE kinase assay); format: biochemical; conditions: ratio of the IC50 values of the individual kinases
Chain of LynA (P07948 whole entry): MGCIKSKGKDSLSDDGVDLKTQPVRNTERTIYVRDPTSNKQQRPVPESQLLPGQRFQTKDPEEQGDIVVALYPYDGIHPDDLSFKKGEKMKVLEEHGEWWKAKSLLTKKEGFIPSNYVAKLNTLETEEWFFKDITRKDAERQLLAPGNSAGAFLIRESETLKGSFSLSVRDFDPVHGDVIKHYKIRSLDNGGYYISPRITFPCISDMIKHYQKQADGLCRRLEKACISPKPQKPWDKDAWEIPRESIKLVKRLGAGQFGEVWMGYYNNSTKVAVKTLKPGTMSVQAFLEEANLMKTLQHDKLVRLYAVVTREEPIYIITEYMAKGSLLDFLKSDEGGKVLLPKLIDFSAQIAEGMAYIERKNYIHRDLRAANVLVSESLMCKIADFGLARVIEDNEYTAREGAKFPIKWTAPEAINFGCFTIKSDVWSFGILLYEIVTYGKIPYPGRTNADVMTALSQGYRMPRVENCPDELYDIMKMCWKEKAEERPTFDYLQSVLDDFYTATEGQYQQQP
Method: as §3

Btk = Btk (Homo sapiens (Human), UniProt Q06187); assay: Btk enzyme inhibitory activity (Z'-LYTE Kinase Assay Kit-Tyr1 peptide); format: biochemical; conditions: Tyr-1 peptide 4 μM, Btk 5 nM, ATP 36 μM, 1 hour at 30° C.
Chain of Btk (Q06187 whole entry): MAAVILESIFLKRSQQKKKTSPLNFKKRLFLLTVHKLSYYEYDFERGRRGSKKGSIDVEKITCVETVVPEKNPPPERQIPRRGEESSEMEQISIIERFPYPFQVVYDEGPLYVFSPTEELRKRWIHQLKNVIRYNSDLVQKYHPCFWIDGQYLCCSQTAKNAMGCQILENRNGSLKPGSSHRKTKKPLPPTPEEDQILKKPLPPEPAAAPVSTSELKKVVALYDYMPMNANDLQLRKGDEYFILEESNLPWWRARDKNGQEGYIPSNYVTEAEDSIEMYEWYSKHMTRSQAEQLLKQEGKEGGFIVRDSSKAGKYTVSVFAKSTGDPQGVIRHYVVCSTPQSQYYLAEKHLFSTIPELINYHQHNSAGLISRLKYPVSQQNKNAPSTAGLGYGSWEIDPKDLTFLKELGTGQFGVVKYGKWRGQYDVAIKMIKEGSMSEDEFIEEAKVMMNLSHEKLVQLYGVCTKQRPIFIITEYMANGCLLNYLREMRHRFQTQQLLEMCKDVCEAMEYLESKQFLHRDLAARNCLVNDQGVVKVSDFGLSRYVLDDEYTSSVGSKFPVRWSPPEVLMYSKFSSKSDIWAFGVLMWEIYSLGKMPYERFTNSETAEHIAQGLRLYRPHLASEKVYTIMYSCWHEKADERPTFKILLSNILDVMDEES
Method: The Btk enzyme inhibitory activity was measured, based on the protocol provided by the manufacturer, using Btk (Invitrogen Corporation) and the Z′-LYTE® Kinase Assay Kit-Tyr1 peptide (Invitrogen Corporation), which contained the following reagents: Tyr-1 peptide, Thy-1 phosphopeptide, 5× kinase buffer, ATP, development reagent B, development buffer, and stop reagent.
5 μL/well of a solution of the test compound diluted with dimethyl sulfoxide (DMSO), or DMSO, and 10 μL/well of the substrate/enzyme mixture solution were dispensed to a 96-well assay plate and a reaction was carried out for 20 minutes at 30° C. […] The enzymatic reaction was then stopped by adding 10 μL of the stop solution.
The percent inhibition (%) by the test compound was calculated using the following equation. percent inhibition (%) of phosphorylation=1−{(AC−AX)/(AC−AB)}×100 [E1]

[2] = test system: T cells (CD3-positive CD20-negative cells) of human PBMC; assay: T cell activation using human PBMC (CD69-positive signal, FACS); format: cell-based; conditions: anti-CD3/CD28 antibody beads, 16 hours
Method: as §1, §2

Fyn = Fyn (Homo sapiens (Human), UniProt P06241); assay: Fyn inhibitory activity, selectivity for Btk (Z'-LYTE kinase assay); format: biochemical; conditions: ratio of the IC50 values of the individual kinases
Chain of Fyn (P06241 whole entry): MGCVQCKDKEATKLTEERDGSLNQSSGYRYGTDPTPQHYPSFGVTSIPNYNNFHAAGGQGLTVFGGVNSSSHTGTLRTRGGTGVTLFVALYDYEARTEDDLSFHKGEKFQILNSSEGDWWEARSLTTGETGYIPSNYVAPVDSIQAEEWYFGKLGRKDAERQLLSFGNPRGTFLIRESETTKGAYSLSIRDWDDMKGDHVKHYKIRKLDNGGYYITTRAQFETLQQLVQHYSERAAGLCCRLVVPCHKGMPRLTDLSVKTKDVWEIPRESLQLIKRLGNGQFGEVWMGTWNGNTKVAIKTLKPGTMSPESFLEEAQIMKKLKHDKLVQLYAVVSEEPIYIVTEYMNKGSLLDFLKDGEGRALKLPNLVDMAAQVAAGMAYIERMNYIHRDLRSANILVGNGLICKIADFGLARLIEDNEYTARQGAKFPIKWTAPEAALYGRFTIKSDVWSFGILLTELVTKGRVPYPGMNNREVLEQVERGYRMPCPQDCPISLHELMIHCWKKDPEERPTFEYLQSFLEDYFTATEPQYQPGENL
Method: as §3

Human CYP2C8 = Human CYP2C8 (Homo sapiens (Human), UniProt P10632); assay: Inhibitory action on human CYP2C8; format: in vitro ADME
Chain of Human CYP2C8 (P10632 whole entry): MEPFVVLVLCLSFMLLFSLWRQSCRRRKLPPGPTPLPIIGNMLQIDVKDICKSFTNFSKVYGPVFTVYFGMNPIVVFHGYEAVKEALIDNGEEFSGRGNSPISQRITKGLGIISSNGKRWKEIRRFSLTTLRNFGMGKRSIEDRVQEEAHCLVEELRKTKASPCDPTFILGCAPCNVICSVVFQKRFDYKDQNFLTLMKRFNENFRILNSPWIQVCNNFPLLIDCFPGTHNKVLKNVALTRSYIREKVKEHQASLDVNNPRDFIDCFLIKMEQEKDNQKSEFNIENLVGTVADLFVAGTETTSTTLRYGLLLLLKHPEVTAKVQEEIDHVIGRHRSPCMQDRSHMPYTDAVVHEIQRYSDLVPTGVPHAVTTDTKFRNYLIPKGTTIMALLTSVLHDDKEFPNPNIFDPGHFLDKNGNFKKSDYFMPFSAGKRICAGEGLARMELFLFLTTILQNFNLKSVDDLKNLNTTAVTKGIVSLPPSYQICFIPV
Method: as §4
The reaction was carried out in a 96-well plate. […] 100 μL of this reaction mixture and 50 μL of the test compound prepared as described above and the positive control solution prepared as described above were dispensed into each well and pre-incubation was carried out at 10 minutes for 37° C. The reaction was started by the addition of 50 μL NADPH solution (final concentration=1 mmol/L) and incubation was carried out for 30 minutes at 37° C.

Human liver cells [3] = assay: Cytotoxicity in cultured human hepatoma cells (ATP concentration, Celltiter Glo); format: cell-based; conditions: 50% decline in ATP concentration, exposure for 24 hours, read-out: Toxicity for human liver cells (IC50 (μM))
Method: (§5) Measurement of the Cytotoxicity and Ability to Reduce the Mitochondrial Membrane Potential in Cultured Human Hepatoma Cells
(§6) Human liver cells were seeded into a collagen-coated 96-well plate at a cell density of 30,000 cells/well and incubation was carried out overnight in an incubator at 37° C. in 5% CO2-95% air. The cultured cells were stained for 1 hour with 5,5′,6,6′-tetrahydro-1,1′,3,3′-tetramethyl-benzamidazolocarbocyanine iodide (JC-1) followed by treatment with the test compound. The test compound was dissolved in DMSO and then diluted with the liquid culture medium Hepatocyte Culture Medium (HCM) and added to the cells. The test compound treatment concentrations were 0, 6.25, 12.5, 25, 50, 100, 200, and 400 μmol/L. After exposure to the test compound for 24 hours, measurement was performed with a SpectraMax plate reader (Molecular Devices, LLC) at an excitation wavelength of 485 nm and a fluorescence wavelength of 538 nm and an excitation wavelength of 544 nm and a fluorescence wavelength of 590 nm. The membrane potential was determined by the ratio between the 544 nm/590 nm measurement value and the 485 nm/538 nm measurement value. After this, the ATP concentration in the cells was measured using a Celltiter Glo luminescent assay kit (Promega Corporation) in order to evaluate the cell toxicity of the test compound. The cells were lysed by the assay buffer provided with the measurement kit and the concentration of the ATP released from the cells was measured using the luciferin-luciferase enzyme activity as the index. The emission was measured using a SpectraMax plate reader. […] The ability to lower the mitochondrial membrane potential of the test compounds and the cytotoxicity of the test compounds are given in Table 3 below.

[4] = Stability in the rat liver microsome; conditions: 0.5 mg/mL microsomes, NADPH, 15 minutes at 37° C.
Method: (§7) Evaluation of the Stability in the Rat and Human Liver Microsome
(§8) A 0.25 mmol/L solution was prepared by diluting the test compound (10 mmol/L DMSO solution, 5 μL) with an aqueous 50% acetonitrile solution (195 μL).
(§9) 20 μL was collected immediately after the start and the reaction was stopped by the addition to 180 μL of acetonitrile that contained an internal standard (warfarin). 20 μL of this solution was stirred with 180 μL of an aqueous 50% acetonitrile solution on a filter plate for protein depletion followed by suction filtration, and the filtrate was used as the standard sample.
(§10) The previously indicated reaction solution was incubated for 15 minutes at 37° C., and 20 μL was then added to 180 μL cold acetonitrile (contained the internal standard warfarin) to stop the reaction. 20 μL of this was stirred with 180 μL of an aqueous 50% acetonitrile solution on a filter plate for protein depletion followed by suction filtration, and the filtrate was used as the standard sample.

Human liver cells [5] = assay: Ability to reduce the mitochondrial membrane potential in cultured human hepatoma cells (JC-1); format: cell-based; conditions: JC-1, exposure for 24 hours, read-out: Ability to lower the mitochondrial membrane potential (IC50 (μM))
Excerpt: as §5
Tissue that maintains an aerobic equilibrium, e.g., the kidneys and heart, and tissue that is exposed to high drug concentrations and carries out drug metabolism, e.g., the liver, are known to be sensitive to mitochondrial dysfunction (Drug Discovery Today, 12 (17-18), 777-785, 2007). The reduction or extinction of the mitochondrial membrane potential by a drug is caused by the direct inhibition of the electron transport system, decoupling of electron transport from ATP synthase, or the opening of a mitochondrial membrane permeability transition pore. As a consequence, measurement of the mitochondrial membrane potential of liver cells can provide a parameter for hepatotoxicity.
as §6

[6] = Stability in the human liver microsome; conditions: 0.5 mg/mL microsomes, NADPH, 15 minutes at 37° C.
Method: as §7, §8, §9, §10

In the case of `C=CC(=O)N1CCC(Cn2c(=O)n(-c3ccc(Oc4ccccc4)cc3)c3c(N)ncnc32)CC1` [Example 8(14), 9-[(1-acryloyl-4-piperidinyl)methyl]-6-amino-7-(4-phenoxyphenyl)-7,9-dihydro-8H-purin-8-one], the IC50 [1] is reported as 0.023 µM, the “Lck[IC50]/Btk[IC50]” value (Lck) is reported as 220 and the IC50 (Human CYP2C19) is reported as > 10 µM. The “LynA[IC50]/Btk[IC50]” value (LynA) was 1767, the IC50 (Btk) was 0.004 µM and the IC50 [2] was > 10 µM. For the same compound, the “Fyn[IC50]/Btk[IC50]” value (Fyn) was 2500 and the IC50 (Human CYP2C8) was > 10 µM.

With `CN(C)C/C=C/C(=O)N1CCC(n2c(=O)n(-c3ccc(Oc4ccccc4)cc3)c3c(N)ncnc32)C1` (centres unmarked) [Example 11(24), 6-amino-9-{1-[(2E)-4-(dimethylamino)-2-butenoyl]-3-pyrrolidinyl}-7-(4-phenoxyphenyl)-7,9-dihydro-8H-purin-8-one] the IC50 (Human liver cells [3]) was 213 µM, the “Residual ratio (%) in the rat liver microsome” value [4] was 88.5% and the IC50 (Human liver cells [5]) was 347 µM. For the same compound, the “Residual ratio (%) in the human liver microsome” value [6] was 100%.

For `C#CC(=O)N1CCC(n2nc(-c3ccc(Oc4ccccc4)cc3)c3c(N)ncnc32)C1` (centres unmarked) [Comparative compound B, reference compound], the IC50 (Human CYP2C19) was 8.1 µM, the IC50 (Human liver cells [3]) was < 6.25 µM and the “Residual ratio (%) in the rat liver microsome” value [4] was 50.6%. The IC50 (Human liver cells [5]) was < 6.25 µM, the IC50 (Human CYP2C8) was 6.9 µM and the “Residual ratio (%) in the human liver microsome” value [6] was 55.9%.

For `CC#CC(=O)N1CCC(n2c(=O)n(-c3ccc(Oc4ccccc4)cc3)c3c(N)ncnc32)C1` (centres unmarked) [Example 19(9), 6-amino-9-[1-(2-butynoyl)-3-pyrrolidinyl]-7-(4-phenoxyphenyl)-7,9-dihydro-8H-purin-8-one], the IC50 (Human liver cells [3]) was 97 µM and the IC50 (Human liver cells [5]) was 181 µM.

In the case of `CC#CC(=O)N1CC[C@@H](n2c(=O)n(-c3ccc(Oc4ccccc4)cc3)c3c(N)ncnc32)C1` [Example 19(2), 6-amino-9-[(3R)-1-(2-butynoyl)-3-pyrrolidinyl]-7-(4-phenoxyphenyl)-7,9-dihydro-8H-purin-8-one], the IC50 [1] is reported as 0.061 µM, the IC50 (Human CYP2C19) is reported as > 10 µM and the IC50 (Human liver cells [3]) is reported as 135 µM. For the same compound, the IC50 (Human liver cells [5]) was 200 µM, the IC50 [2] was > 10 µM and the IC50 (Human CYP2C8) was > 10 µM.

Compound `CC#CC(=O)N1CC[C@@H](n2c(=O)n(-c3ccc(C(=O)c4ccccc4)cc3)c3c(N)ncnc32)C1` [Example 19(40), 6-amino-7-(4-benzoylphenyl)-9-[(3R)-1-(2-butynoyl)-3-pyrrolidinyl]-7,9-dihydro-8H-purin-8-one] has an IC50 (Btk) of 0.011 µM.

In the case of `CN(C)C/C=C/C(=O)N1CC[C@@H](n2c(=O)n(-c3ccc(Oc4ccccc4)cc3)c3c(N)ncnc32)C1` [Example 11(3), 6-amino-9-{(3R)-1-[(2E)-4-(dimethylamino)-2-butenoyl]-3-pyrrolidinyl}-7-(4-phenoxyphenyl)-7,9-dihydro-8H-purin-8-one], the IC50 [1] is reported as 0.032 µM, the “Lck[IC50]/Btk[IC50]” value (Lck) is reported as 19 and the IC50 (Human CYP2C19) is reported as > 10 µM. For the same compound, the “LynA[IC50]/Btk[IC50]” value (LynA) was 143, the IC50 (Btk) was 0.014 µM and the IC50 [2] was > 10 µM. The “Fyn[IC50]/Btk[IC50]” value (Fyn) was 236 and the IC50 (Human CYP2C8) was > 10 µM.

With `C=CC(=O)N1CCC[C@@H](n2nc(-c3ccc(Oc4ccccc4)cc3)c3c(N)ncnc32)C1` [Comparative compound A, reference compound] the IC50 (Human CYP2C19) was 5.6 µM, the IC50 (Human liver cells [3]) was 78 µM and the IC50 (Human liver cells [5]) was 39 µM.

Source: patent publication US9879013B2, “Purinone derivative” (ONO PHARMACEUTICAL CO., LTD., priority 2010, dated 2018)
